{
  "source": "patent US20200078395A1",
  "about": "“AVERTING COMPLICATIONS OF PUMP INHIBITOR THERAPY BY EFFERVESCENT CALCIUM MAGNESIUM CITRATE” (THE BOARD OF REGENTS OF THE UNIVERSITY OF TEXAS SYSTEM, priority 2018, published 2020)",
  "key": {"[1]": {"assay": "Serum magnesium in CKD Stage 3 and Stage 5D after EffCaMgCit or calcium acetate", "type": "in vivo, human"}, "[2]": {"details": "omeprazole use versus non-omeprazole use, FDA Adverse Event Reporting System 2012 (Tamura, 2012); cited from earlier work"}, "[3]": {"assay": "Multi-dosing crossover trial on esomeprazole: 24-h urinary citrate and ammonium (acid load)", "type": "in vivo, human", "details": "after 2-4 weeks of treatment", "method": "(§1) The inventors conducted a multi-dosing trial, in which the effect of EffCaMgCit was compared with placebo in a crossover trial in 22 healthy subjects taking PPI at twice the usual dose (esomeprazole 40 mg/day) for 28 days, representing the recommended treatment format for erosive esophagitis-gastritis. During the EffCaMgCit phase, subjects took EffCaMgCit containing 19 meq calcium and 10 meq magnesium twice per day for 28 days. During the Placebo Phase, the subjects took placebo for 28 days. During both phases, the subjects took esomeprazole 40 mg per day. Blood samples were obtained 4 hours after EffCaMgCit dose (in multi-dosing trials with esomeprazole), rather than in the fasting state. Tamsen: no study with PPI in CKD. Peak absorption of calcium and magnesium occurs 2-4 hours after oral load. Thus, pharmacokinetic and pharmacodynamic effects of EffCaMgCit can best be captured in post-load samples.\n24-h urinary citrate and ammonium, urinary markers of acid-base balance, were determined at baseline and after 2-4 weeks of treatment with esomeprazole (plus placebo) and after treatment with esomeprazole (plus EffCaMgCit). […] FIGS. 10 and 11."}, "[4]": {"assay": "Multi-dosing crossover trial on esomeprazole: post-load serum magnesium", "type": "in vivo, human", "details": "for number of subjects with hypomagnesemia or marginal hypomagnesemia (<2 mg/dL): of 22 subjects, baseline 2; for subjects with hypomagnesemia or marginal hypomagnesemia (<2 mg/dL): baseline 9%", "method": "as §1\nSerum magnesium was determined at 2 weeks and 4 weeks at 4 hours after the morning dose. […] At baseline (before starting esomeprazole), 9% of subjects had hypomagnesemia or marginal hypomagnesemia (<2 mg/dL). During treatment with placebo with esomeprazole, hypomagnesemia or marginal hypomagnesemia was found in a higher percentage of subjects (14% at 2 weeks, and 23% at 4 weeks). During treatment with EffCaMgCit with esomeprazole, no subjects had hypomagnesemia or marginal hypomagnesemia. FIGS. 7 and 8."}, "[5]": {"assay": "Multi-dosing crossover trial on esomeprazole: fractional excretion of magnesium (FEMg)", "type": "in vivo, human", "details": "from baseline over 2-4 weeks", "method": "as §1"}, "[6]": {"assay": "Multi-dosing crossover trial on esomeprazole: post-load serum calcium", "type": "in vivo, human", "details": "for number of subjects with hypocalcemia or marginal hypocalcemia (serum calcium <9 mg/dL): of 22 subjects; for subjects with low or marginally low serum calcium (<9 mg/dL): baseline 18%", "method": "as §1\nA venous blood sample was obtained at 4 hours after the morning dose of EffCaMgCit or placebo, for the analysis of Ca, PTH, CTX and Mg after 2 weeks and 4 weeks of treatment. […] In the Placebo group (while on esomeprazole), a low or marginally low serum calcium (<9 mg/dL) was encountered in 23% of subjects at 2 weeks and in 18% of subjects at 4 weeks. […] Thus, not only did EffCaMgCit raise serum calcium, but it also corrected low or marginally low serum calcium. At two weeks of placebo (esomeprazole alone), a higher percentage of subjects had low or marginally low serum calcium than at baseline before esomeprazole (23% vs. 18%). Thus, a low or marginally low serum calcium developed during two weeks of esomeprazole therapy in an additional patient. This subject had normal serum calcium on EffCaMgCit (plus esomeprazole). FIGS. 1 and 2."}, "serum FGF23": {"test_system": "serum FGF23", "assay": "Multi-dosing crossover trial on esomeprazole: post-load serum FGF23", "type": "in vivo, human", "details": "4 hours after morning dose, baseline to 4 weeks", "method": "as §1"}, "serum CTX": {"test_system": "serum CTX", "assay": "Multi-dosing crossover trial on esomeprazole: post-load serum CTX (bone resorption marker)", "type": "in vivo, human", "parameters": "dose or concentration left out as unconfirmed", "details": "of 22 subjects", "method": "as §1\n(§2) A venous blood sample was obtained at 4 hours after the morning dose of EffCaMgCit or placebo, for the analysis of Ca, PTH, CTX and Mg after 2 weeks and 4 weeks of treatment. […] In the Placebo group (while on esomeprazole), a low or marginally low serum calcium (<9 mg/dL) was encountered in 23% of subjects at 2 weeks and in 18% of subjects at 4 weeks. […] Thus, not only did EffCaMgCit raise serum calcium, but it also corrected low or marginally low serum calcium. […]"}, "serum PTH": {"test_system": "serum PTH", "assay": "Multi-dosing crossover trial on esomeprazole: post-load serum PTH", "type": "in vivo, human", "details": "of 22 subjects, baseline 8", "method": "as §1, §2"}},
  "data": [
    {"smiles": "CC(=O)[O-].CC(=O)[O-].[Ca+2]", "note": "[calcium acetate]", "values": [
      {"measurement": "serum magnesium after treatment", "setting": "[1]; CKD Stage 3, data not shown", "result": "did not change"},
      {"measurement": "serum Mg after treatment", "setting": "[1]; CKD Stage 5D without residual renal function", "result": "did not"}
    ]},
    {"smiles": "COc1ccc2[nH]c([S+]([O-])Cc3ncc(C)c(OC)c3C)nc2c1", "note": "(centres unmarked) [omeprazole]", "values": [
      {"measurement": "odds ratio of hypomagnesemia", "setting": "[2]", "result": 2.76}
    ]},
    {"smiles": "COc1ccc2nc([S@@+]([O-])Cc3ncc(C)c(OC)c3C)[nH]c2c1", "note": "[esomeprazole]", "values": [
      {"measurement": "24-h urinary ammonium compared with baseline", "setting": "[3]", "result": "marginally higher"},
      {"measurement": "24-h urinary citrate compared with baseline", "setting": "[3]", "result": "significantly lower"},
      {"measurement": "number of subjects with hypomagnesemia or marginal hypomagnesemia (<2 mg/dL)", "setting": "[4]; at 2 weeks", "result": 3, "unit": "subjects"},
      {"measurement": "subjects with hypomagnesemia or marginal hypomagnesemia (<2 mg/dL)", "setting": "[4]; at 2 weeks", "result": 14, "unit": "%"},
      {"measurement": "number of subjects with hypomagnesemia or marginal hypomagnesemia (<2 mg/dL)", "setting": "[4]; at 4 weeks", "result": 5, "unit": "subjects"},
      {"measurement": "subjects with hypomagnesemia or marginal hypomagnesemia (<2 mg/dL)", "setting": "[4]; at 4 weeks", "result": 23, "unit": "%"},
      {"measurement": "FEMg, change during treatment", "setting": "[5]", "result": "trended downward"},
      {"measurement": "number of subjects with hypocalcemia or marginal hypocalcemia (serum calcium <9 mg/dL)", "setting": "[6]; after 4 weeks", "result": 4, "unit": "subjects"},
      {"measurement": "number of subjects with hypocalcemia or marginal hypocalcemia (serum calcium <9 mg/dL)", "setting": "[6]; at 2 weeks", "result": 5, "unit": "subjects"},
      {"measurement": "subjects with low or marginally low serum calcium (<9 mg/dL)", "setting": "[6]; at 2 weeks", "result": 23, "unit": "%"},
      {"measurement": "subjects with low or marginally low serum calcium (<9 mg/dL)", "setting": "[6]; at 4 weeks", "result": 18, "unit": "%"},
      {"measurement": "serum FGF23, change from Baseline", "setting": "serum FGF23", "result": "trend toward a decline"},
      {"measurement": "serum FGF23, change from Baseline", "setting": "serum FGF23; listed as PPI", "result": "tended to rise"},
      {"measurement": "number of subjects with high serum CTX (upper normal limit)", "setting": "serum CTX; at 2 weeks", "result": "Six"},
      {"measurement": "number of subjects with high serum CTX (upper normal limit)", "setting": "serum CTX; at 4 weeks", "result": "Six"},
      {"measurement": "number of subjects with high serum PTH (>65 pg/ml)", "setting": "serum PTH; at 2 weeks", "result": 15, "unit": "subjects"},
      {"measurement": "number of subjects with high serum PTH (>65 pg/ml)", "setting": "serum PTH; at 4 weeks", "result": 10, "unit": "subjects"}
    ]}
  ]
}
